Test systems include A498 renal; SK-OV-3 ovarian; HT29 colon; OVCAR-3 ovarian; PC-3 prostate; NCI-H460 lung; 786-0 renal; U251 CNS; MOLT-4 leukemia; RXF 393 renal.
What all share (experiment): growth of human tumour cells (NCI), 48 h

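Growth conditions: 96-well plates. Treatment: test compound, 48 hours, 5 concentrations. Analysis: linear interpolation between bracketing concentrations; unreached endpoints set to highest concentration. At the GI50, growth is halved. At the TGI there is no net growth.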

Turning to `O=C(O)CCC1COc2ccccc2O1` (stereo not given), the TGI in the test with A498 renal, in the test on SK-OV-3 ovarian, with HT29 colon, with OVCAR-3 ovarian, in the test on PC-3 prostate and with NCI-H460 lung was greater than 10 µM throughout. For the same molecule, the TGI with 786-0 renal, in the test with U251 CNS, in the test on MOLT-4 leukemia and in the test with RXF 393 renal was greater than 10 µM each time.

Take `O=C(Nc1cnn2ccc(N3CCC[C@@H]3c3cc(F)ccc3F)nc12)N1CC[C@H](O)C1`: the GI50 in the test with A498 renal, in the test with SK-OV-3 ovarian, in the test with HT29 colon, with OVCAR-3 ovarian, in the test on PC-3 prostate and in the test on NCI-H460 lung was greater than 100 µM each time. The GI50 in the test on 786-0 renal, with U251 CNS, in the test on MOLT-4 leukemia and with RXF 393 renal was greater than 100 µM throughout. Also, the TGI with A498 renal, in the test on SK-OV-3 ovarian, with HT29 colon, with OVCAR-3 ovarian, in the test on PC-3 prostate and in the test with NCI-H460 lung was greater than 100 µM throughout. In addition, the TGI in the test with 786-0 renal, with U251 CNS, in the test with MOLT-4 leukemia and in the test on RXF 393 renal was greater than 100 µM in each case.

`Nc1nc2c(c3ncccc13)C(c1cccc(Cl)c1)Cc1ncccc1-2` (stereo not given): the GI50 with A498 renal is 1.35 µM; in the test on SK-OV-3 ovarian it was 2.69 µM; in the test with HT29 colon it was 0.805 µM; in the test on OVCAR-3 ovarian, 1.11 µM; in the test on PC-3 prostate, 2.6 µM; with NCI-H460 lung it was 3.03 µM. In addition, the GI50 in the test with 786-0 renal is 3.99 µM; with U251 CNS, 2.17 µM; with MOLT-4 leukemia, 2.43 µM; in the test with RXF 393 renal, 0.908 µM. Besides, the TGI in the test on A498 renal was 6.24 µM; with SK-OV-3 ovarian it was 23.2 µM; in the test on HT29 colon it was 10.8 µM; in the test with OVCAR-3 ovarian, 4.88 µM; with PC-3 prostate, 17.6 µM; in the test on NCI-H460 lung, 22.6 µM. Further, the TGI is 26.5 µM in the test with 786-0 renal, 15.4 µM in the test with U251 CNS, 50.4 µM in the test with MOLT-4 leukemia and 4.9 µM with RXF 393 renal.

Consider `C(CCc1nnc2c(n1)CCCC2)Cc1nnc2c(n1)CCCC2`, for which the TGI in the test on A498 renal, in the test on SK-OV-3 ovarian, with HT29 colon, in the test on OVCAR-3 ovarian, in the test on PC-3 prostate and in the test with NCI-H460 lung was greater than 100 µM each time. The TGI in the test with 786-0 renal, in the test with U251 CNS, in the test with MOLT-4 leukemia and with RXF 393 renal was greater than 100 µM in each case.

Take `CC[N+](CC)=c1ccc2nc3c(cc(NCc4ccccc4)c4ccccc43)oc-2c1`: the GI50 with A498 renal was 0.751 µM; in the test with SK-OV-3 ovarian, 1.12 µM; in the test with HT29 colon, 0.189 µM; in the test on OVCAR-3 ovarian, 0.0951 µM; in the test on PC-3 prostate, 0.264 µM; with NCI-H460 lung it was 0.201 µM. The GI50 in the test with 786-0 renal is 0.497 µM; in the test with U251 CNS it was 0.196 µM; with MOLT-4 leukemia it was 0.346 µM; in the test with RXF 393 renal it was 0.781 µM. Besides, the TGI came to 4.62 µM in the test on A498 renal; 2.32 µM in the test with SK-OV-3 ovarian; 0.773 µM in the test on HT29 colon; 0.557 µM in the test on OVCAR-3 ovarian; 1.63 µM in the test with PC-3 prostate; 0.435 µM in the test on NCI-H460 lung. For the same molecule, the TGI in the test on 786-0 renal was determined as 1.85 µM; with U251 CNS it was 0.962 µM; in the test on MOLT-4 leukemia, 3.17 µM; with RXF 393 renal it was 2.12 µM.

For the molecule `COc1cc(NN=C(c2ccc(O)cc2)c2ccc(O)cc2)c([N+](=O)[O-])cc1[N+](=O)[O-]`, the GI50 in the test with A498 renal was 13.2 µM; in the test with SK-OV-3 ovarian, 16.6 µM; in the test on HT29 colon, 10.9 µM; in the test with OVCAR-3 ovarian, 1.21 µM; in the test with PC-3 prostate it was 14.6 µM; in the test on NCI-H460 lung, 3.76 µM. Further, the GI50 was 11.7 µM with 786-0 renal, 7.79 µM in the test on U251 CNS, 6.52 µM in the test on MOLT-4 leukemia and 8.05 µM with RXF 393 renal. For the same molecule, the TGI is 35.2 µM in the test on A498 renal; 30.2 µM in the test on SK-OV-3 ovarian; 25.6 µM in the test with HT29 colon; 14.8 µM in the test on OVCAR-3 ovarian; greater than 100 µM in the test with PC-3 prostate; 21.2 µM in the test on NCI-H460 lung. Further, the TGI with 786-0 renal was 24.8 µM; in the test on U251 CNS, 20.6 µM; in the test on MOLT-4 leukemia it was greater than 100 µM; in the test with RXF 393 renal, 22.9 µM.

Values taken from PubChem BioAssay (NCI).
